According to ChEMBL document CHEMBL5465560, “Selectivity Literature for EUbOPEN Chemogenomic Library” (2024):

Assays:
[1] = molecular target: RAC-alpha serine/threonine-protein kinase (Homo sapiens, UniProt P31749); assay: Selectivity interaction (Kinase panel (literature)) EUB0001199aCl AKT1; settings: at 1 µM
[2] = molecular target: Serine/threonine-protein kinase N2 (Homo sapiens, UniProt Q16513); assay: Selectivity interaction (ProQinase) EUB0000171b PKN2
[3] = molecular target: Tyrosine-protein kinase Fyn (Homo sapiens) (UniProt P06241); assay: Selectivity interaction (KinomeScan (DiscoverX)) EUB0000695a FYN; settings: at 100 nM
Tyrosine-protein kinase Fyn (Homo sapiens), sequence (P06241 2-537 limits assumed): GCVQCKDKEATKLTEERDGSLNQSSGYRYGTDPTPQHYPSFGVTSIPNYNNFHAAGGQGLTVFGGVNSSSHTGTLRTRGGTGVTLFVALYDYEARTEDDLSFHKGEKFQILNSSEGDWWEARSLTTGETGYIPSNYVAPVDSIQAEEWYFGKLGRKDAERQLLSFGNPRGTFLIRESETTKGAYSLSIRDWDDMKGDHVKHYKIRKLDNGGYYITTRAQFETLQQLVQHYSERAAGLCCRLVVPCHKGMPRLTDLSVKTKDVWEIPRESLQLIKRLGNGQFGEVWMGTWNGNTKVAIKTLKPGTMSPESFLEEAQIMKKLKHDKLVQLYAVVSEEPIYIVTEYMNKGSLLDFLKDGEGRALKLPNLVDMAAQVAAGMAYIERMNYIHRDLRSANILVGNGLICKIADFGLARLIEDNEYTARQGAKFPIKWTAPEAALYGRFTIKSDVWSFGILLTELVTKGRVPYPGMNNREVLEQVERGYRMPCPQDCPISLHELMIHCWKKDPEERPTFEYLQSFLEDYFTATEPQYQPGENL

[4] = molecular target: Serine/threonine-protein kinase WNK4 (Homo sapiens) (UniProt Q96J92); assay: Selectivity interaction (KinomeScan (DiscoverX)) EUB0000695a WNK4; settings: at 100 nM
[5] = molecular target: Rho-associated protein kinase 2 (Homo sapiens, UniProt O75116); assay: Selectivity interaction (KinomeScan (DiscoverX)) EUB0000595a ROCK2; settings: at 10 µM
Rho-associated protein kinase 2, sequence (O75116 whole entry, looked up): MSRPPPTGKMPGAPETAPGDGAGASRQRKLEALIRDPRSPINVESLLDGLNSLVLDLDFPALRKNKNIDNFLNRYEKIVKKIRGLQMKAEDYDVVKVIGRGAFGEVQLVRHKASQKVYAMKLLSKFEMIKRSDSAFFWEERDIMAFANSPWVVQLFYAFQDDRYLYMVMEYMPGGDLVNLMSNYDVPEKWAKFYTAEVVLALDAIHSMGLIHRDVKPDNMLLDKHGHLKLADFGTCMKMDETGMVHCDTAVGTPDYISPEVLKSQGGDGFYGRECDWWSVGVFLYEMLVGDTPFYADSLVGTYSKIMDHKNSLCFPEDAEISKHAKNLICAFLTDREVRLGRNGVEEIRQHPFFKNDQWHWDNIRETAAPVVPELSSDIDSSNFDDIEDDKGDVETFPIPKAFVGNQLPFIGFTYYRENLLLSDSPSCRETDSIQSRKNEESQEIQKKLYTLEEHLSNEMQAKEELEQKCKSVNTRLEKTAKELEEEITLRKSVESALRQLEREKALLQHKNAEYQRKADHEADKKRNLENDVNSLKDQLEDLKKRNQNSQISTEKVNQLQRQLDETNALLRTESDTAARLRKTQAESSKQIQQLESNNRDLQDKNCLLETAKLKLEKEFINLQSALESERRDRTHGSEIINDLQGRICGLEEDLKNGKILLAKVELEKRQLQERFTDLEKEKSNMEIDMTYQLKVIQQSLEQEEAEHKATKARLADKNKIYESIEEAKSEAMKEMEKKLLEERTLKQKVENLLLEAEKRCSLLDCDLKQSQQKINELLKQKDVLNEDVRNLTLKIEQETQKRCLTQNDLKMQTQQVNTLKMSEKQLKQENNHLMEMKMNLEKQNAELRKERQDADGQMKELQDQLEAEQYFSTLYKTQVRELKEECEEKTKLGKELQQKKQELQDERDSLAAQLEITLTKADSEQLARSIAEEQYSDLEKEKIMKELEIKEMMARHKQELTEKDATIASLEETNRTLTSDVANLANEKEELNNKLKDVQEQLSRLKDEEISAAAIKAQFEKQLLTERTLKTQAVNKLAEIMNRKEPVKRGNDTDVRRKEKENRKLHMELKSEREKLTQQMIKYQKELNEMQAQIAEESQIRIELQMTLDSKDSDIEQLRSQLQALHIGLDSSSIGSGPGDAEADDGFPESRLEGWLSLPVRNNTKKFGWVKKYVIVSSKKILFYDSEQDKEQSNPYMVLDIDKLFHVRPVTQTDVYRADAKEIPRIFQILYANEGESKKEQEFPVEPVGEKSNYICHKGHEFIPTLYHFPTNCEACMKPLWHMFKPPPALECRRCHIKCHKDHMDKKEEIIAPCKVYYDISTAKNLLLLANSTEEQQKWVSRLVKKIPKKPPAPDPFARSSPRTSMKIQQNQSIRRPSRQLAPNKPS

[6] = molecular target: T1, Inhibitor of nuclear factor kappa-B kinase subunit alpha (Homo sapiens) (UniProt O15111); assay: Selectivity interaction (Millipore kinase profiler) EUB0000124b CHUK; settings: at 10 µM
T1 sequence (whole entry): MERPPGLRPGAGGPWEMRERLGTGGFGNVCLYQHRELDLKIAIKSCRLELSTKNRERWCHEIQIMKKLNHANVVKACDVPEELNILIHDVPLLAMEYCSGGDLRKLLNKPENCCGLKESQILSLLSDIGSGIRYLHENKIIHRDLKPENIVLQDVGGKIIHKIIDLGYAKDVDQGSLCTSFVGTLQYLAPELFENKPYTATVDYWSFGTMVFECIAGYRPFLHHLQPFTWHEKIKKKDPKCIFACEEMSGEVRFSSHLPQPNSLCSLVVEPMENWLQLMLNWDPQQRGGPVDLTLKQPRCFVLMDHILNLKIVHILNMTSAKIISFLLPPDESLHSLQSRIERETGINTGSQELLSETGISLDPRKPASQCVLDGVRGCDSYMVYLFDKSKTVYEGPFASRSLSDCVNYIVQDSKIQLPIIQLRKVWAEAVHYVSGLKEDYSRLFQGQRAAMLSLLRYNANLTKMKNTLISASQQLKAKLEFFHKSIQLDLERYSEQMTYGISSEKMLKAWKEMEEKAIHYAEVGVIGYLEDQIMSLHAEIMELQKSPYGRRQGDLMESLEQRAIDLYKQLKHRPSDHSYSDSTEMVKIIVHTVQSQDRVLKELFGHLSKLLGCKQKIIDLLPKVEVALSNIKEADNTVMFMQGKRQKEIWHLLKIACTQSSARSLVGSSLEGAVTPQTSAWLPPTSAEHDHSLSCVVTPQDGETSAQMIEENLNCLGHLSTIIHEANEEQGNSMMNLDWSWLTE

[7] = molecular target: T2, Dual specificity protein kinase TTK (Homo sapiens) (UniProt P33981); assay: Selectivity interaction (Kinase panel (DSF assay)) EUB0001558a TTK
T2 sequence (whole entry): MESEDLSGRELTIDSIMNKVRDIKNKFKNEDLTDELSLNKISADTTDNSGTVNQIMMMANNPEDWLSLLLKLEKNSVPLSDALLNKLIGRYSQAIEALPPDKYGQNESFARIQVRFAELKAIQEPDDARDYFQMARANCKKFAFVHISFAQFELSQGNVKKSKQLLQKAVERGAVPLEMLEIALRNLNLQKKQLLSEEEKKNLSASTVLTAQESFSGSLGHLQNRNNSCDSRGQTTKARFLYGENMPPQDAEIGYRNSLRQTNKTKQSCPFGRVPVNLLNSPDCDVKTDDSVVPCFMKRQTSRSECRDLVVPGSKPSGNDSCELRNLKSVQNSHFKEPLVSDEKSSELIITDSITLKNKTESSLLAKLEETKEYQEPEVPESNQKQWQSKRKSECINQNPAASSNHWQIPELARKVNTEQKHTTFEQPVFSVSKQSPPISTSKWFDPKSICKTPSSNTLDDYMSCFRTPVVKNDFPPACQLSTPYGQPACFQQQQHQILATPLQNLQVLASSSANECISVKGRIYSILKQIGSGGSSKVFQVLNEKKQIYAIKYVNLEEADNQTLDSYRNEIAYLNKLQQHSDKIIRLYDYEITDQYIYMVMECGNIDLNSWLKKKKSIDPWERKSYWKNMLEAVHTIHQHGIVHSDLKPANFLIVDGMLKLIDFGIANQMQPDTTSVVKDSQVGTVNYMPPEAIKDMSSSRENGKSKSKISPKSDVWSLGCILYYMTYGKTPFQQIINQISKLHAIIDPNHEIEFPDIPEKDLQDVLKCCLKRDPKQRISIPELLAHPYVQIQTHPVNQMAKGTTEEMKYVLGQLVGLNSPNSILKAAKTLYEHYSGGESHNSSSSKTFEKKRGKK

[8] = molecular target: Tyrosine-protein kinase ABL2 (Homo sapiens, UniProt P42684); assay: Selectivity interaction (KinomeScan (DiscoverX)) EUB0000045b ABL2
Tyrosine-protein kinase ABL2, sequence (P42684 whole entry): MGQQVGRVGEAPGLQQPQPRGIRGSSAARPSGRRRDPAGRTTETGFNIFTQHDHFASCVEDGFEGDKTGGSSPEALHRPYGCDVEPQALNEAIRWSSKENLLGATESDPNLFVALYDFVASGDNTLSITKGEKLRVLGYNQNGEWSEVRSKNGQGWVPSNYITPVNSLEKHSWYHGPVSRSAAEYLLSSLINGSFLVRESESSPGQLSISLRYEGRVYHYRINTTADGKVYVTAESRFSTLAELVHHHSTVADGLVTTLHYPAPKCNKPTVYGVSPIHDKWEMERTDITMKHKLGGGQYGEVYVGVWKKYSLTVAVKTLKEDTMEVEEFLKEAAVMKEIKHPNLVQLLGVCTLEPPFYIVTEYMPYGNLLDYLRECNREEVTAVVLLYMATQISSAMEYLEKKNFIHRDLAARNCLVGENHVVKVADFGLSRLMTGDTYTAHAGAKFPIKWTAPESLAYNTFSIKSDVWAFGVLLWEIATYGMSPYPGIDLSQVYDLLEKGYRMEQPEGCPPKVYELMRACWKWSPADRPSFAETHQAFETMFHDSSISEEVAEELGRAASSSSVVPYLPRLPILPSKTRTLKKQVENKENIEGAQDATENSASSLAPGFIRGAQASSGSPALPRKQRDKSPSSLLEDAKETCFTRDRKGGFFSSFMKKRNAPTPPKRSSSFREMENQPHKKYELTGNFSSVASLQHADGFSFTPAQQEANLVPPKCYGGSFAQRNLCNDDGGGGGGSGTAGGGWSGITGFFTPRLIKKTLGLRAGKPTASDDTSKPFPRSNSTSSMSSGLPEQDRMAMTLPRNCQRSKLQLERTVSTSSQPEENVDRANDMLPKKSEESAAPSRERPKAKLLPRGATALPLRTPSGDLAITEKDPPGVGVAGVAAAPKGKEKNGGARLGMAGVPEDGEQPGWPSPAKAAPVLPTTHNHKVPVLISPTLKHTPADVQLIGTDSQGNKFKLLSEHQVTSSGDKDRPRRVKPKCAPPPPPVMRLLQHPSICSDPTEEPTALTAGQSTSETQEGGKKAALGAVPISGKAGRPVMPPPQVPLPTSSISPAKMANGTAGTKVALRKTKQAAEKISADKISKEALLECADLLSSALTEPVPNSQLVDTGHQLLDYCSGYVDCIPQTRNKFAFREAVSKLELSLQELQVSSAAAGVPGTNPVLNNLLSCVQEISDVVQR

[9] = molecular target: Mitogen-activated protein kinase 9 (Homo sapiens, UniProt P45984); assay: Selectivity interaction (KinomeScan (DiscoverX)) EUB0001079a MAPK9; settings: at 1 µM
Mitogen-activated protein kinase 9, sequence (P45984 whole entry, looked up): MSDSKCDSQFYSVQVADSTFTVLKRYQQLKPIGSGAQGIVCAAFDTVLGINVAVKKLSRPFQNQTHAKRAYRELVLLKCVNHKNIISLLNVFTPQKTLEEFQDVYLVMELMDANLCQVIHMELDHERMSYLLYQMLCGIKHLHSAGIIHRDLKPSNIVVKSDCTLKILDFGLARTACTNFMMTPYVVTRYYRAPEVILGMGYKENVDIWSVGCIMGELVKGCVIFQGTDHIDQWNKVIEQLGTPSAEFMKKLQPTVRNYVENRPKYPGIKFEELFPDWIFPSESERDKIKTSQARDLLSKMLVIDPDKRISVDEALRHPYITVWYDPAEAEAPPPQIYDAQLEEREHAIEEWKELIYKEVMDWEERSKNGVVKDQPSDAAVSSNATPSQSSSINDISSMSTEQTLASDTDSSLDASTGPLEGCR

[10] = molecular target: T3, Serine/threonine-protein kinase TNNI3K (Homo sapiens) (UniProt Q59H18); assay: Selectivity interaction (KinomeScan (DiscoverX)) EUB0000092b TNNI3K; settings: at 10 µM
T3 sequence (whole entry): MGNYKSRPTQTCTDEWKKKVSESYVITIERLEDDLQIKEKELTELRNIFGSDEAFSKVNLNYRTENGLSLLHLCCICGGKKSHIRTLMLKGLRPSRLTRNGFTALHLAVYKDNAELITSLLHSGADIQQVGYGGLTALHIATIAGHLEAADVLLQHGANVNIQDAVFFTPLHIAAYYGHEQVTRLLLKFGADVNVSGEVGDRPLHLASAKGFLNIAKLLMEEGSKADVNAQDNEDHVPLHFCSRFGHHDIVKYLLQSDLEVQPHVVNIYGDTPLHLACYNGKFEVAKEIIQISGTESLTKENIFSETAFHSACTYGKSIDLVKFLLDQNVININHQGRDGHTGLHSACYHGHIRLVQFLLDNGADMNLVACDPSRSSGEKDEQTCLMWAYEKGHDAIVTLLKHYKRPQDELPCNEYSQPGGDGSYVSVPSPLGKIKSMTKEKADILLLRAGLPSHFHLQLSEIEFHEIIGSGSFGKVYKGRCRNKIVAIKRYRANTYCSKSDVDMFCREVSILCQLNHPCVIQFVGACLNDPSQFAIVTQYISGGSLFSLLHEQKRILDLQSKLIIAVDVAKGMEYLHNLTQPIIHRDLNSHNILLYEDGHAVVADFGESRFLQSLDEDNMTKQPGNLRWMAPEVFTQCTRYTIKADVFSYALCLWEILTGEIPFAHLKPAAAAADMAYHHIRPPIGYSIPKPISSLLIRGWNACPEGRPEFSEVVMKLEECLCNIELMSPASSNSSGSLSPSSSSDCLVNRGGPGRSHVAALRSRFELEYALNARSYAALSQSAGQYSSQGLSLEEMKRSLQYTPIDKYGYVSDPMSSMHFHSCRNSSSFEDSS

Serine/threonine-protein kinase N2, sequence (Q16513 whole entry, looked up): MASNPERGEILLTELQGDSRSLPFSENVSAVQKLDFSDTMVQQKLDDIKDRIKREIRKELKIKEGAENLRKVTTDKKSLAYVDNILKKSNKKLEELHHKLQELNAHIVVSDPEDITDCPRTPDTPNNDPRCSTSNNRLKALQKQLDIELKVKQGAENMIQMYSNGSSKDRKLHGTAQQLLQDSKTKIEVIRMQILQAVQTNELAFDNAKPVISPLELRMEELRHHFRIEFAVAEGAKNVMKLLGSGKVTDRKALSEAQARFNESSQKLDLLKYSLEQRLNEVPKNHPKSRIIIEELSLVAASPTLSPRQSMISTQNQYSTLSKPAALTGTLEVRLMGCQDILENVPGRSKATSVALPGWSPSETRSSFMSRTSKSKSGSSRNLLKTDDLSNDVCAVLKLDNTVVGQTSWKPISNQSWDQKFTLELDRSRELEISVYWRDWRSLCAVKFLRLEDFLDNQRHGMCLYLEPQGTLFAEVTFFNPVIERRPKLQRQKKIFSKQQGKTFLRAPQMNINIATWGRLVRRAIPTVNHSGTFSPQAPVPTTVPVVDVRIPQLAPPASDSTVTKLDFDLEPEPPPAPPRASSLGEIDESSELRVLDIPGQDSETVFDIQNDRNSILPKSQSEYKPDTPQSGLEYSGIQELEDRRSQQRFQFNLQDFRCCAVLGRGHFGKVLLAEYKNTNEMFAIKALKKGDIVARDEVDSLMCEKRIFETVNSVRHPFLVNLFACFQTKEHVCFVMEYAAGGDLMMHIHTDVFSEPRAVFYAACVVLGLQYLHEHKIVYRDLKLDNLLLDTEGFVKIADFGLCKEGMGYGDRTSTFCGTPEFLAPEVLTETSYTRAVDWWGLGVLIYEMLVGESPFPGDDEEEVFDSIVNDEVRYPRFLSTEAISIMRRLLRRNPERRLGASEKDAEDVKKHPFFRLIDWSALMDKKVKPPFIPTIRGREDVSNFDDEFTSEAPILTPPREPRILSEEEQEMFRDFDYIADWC
RAC-alpha serine/threonine-protein kinase, sequence (P31749 whole entry): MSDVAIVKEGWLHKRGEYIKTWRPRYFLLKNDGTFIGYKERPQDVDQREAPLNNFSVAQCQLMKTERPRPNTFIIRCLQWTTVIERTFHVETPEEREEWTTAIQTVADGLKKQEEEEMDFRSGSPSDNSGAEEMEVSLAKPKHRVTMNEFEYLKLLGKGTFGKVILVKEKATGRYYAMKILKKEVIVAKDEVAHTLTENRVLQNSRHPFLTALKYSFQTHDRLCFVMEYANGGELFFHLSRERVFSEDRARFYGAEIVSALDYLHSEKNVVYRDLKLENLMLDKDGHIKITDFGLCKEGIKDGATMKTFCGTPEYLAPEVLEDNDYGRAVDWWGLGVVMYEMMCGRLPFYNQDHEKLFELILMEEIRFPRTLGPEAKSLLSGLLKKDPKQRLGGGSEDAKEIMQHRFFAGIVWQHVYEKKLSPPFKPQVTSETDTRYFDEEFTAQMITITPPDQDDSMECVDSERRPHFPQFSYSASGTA

CN1Cc2nccc(-c3cn(C)nc3-c3ccc(F)cc3)c2C1=O
% of inhibition [1]: -3%

C=CC(=O)Nc1cccc(C(=O)Nc2ccc(Nc3cc(-c4[nH]c(SC)nc4C)ccn3)cc2)c1
% of control ([2]; at 1 µM): 90%
% of control ([2]; at 5 µM): 76%

Cc1cc(F)c(C(=O)Nc2cccc(-c3nncn3C(C)C)n2)cc1-n1cnc(C2CC2)c1
% of control [3]: 99%
% of control [4]: 100%

COCC(=O)NC/C=C/c1ccc2ncnc(Nc3ccc(Oc4ccc(C)nc4)c(C)c3)c2c1 [CP-724714]
% of control [5]: 100%

CC(=O)Nc1cccc(-n2c(=O)n(C3CC3)c(=O)c3c(Nc4ccc(I)cc4F)n(C)c(=O)c(C)c32)c1
% of control [6]: 123%

CC(C)(O)[C@H](F)CN1Cc2cc(NC(=O)c3cnn4cccnc34)c(N3CCOCC3)cc2C1=O
dTM [7]: 0.3 K

C=CC(=O)Nc1cc(-n2c(=O)ccc3cnc4ccc(-c5ccc(NS(C)(=O)=O)cc5)cc4c32)ccc1C
% of control ([8]; at 1 µM): 100%
% of control ([8]; at 10 µM): 100%

Nc1cnc(N2CCc3cc(S(=O)(=O)Nc4c(F)cc(Cl)cc4F)cc(N4CCCC4=O)c32)nc1 [TP-020n]
% of control [9]: 84%

CCC(=O)N1CCN(c2ccc(-n3c(=O)ccc4cnc5ccc(-c6cnc7ccccc7c6)cc5c43)cc2C(F)(F)F)CC1
% of control [10]: 66%
